In patent publication US12403104B2, “Compounds and methods of promoting myelination” (Case Western Reserve University, priority 2016, dated 2025):
Several values for one entry are separate records, joined by “and”; a condition that tells them apart may be missing. Equal entries are not always repeated. Structures can show the parent of a compound that is named as a salt. Where two headings read alike, the source gives them in different places.

What was measured:
rat CYP51 = target: T1, rat CYP51 (Rattus norvegicus, UniProt Q64654); test: CYP51 enzymatic assay (LC/MS quantitation of FF-MAS); type: biochemical
T1 construct: purchased Cypex, Inc
T1 sequence (Q64654 1-503): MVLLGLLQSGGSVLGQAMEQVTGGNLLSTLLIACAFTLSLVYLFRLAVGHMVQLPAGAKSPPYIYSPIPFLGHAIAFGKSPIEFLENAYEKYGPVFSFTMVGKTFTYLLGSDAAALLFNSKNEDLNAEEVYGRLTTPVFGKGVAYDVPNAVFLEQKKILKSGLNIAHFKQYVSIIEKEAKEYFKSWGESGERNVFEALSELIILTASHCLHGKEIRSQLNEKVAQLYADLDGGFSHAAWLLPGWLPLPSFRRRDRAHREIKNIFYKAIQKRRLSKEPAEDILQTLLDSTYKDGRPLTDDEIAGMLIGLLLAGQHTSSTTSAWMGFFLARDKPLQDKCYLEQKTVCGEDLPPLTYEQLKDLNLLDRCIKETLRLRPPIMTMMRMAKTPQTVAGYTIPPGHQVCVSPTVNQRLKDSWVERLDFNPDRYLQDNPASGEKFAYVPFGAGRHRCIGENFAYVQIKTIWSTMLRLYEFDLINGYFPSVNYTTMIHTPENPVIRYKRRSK
Method: Finally, 15 μl of each reaction/isopropanol mixture was injected onto a SCIEX Triple Quad 6500 LC-MS/MS system using an APCI ion source in positive ion mode with a Shimadzu UFLC-20AD HPLC and a Phenomenex

[1] = tested on: mouse epiblast stem cell-derived OPCs; test: In vitro phenotypic screening of OPCs (MBP+ oligodendrocytes at 72 h); type: cell-based
Method: Then, 40,000 cells were seeded per well in differentiation medium and allowed to attach for 30 min before addition of drug. […] Sterols were added to cells as an ethanol solution (0.2% final ethanol concentration). […] Cells were incubated under standard conditions (37° C., 5% CO2) for 3 days and fixed with 4% paraformaldehyde (PFA) in phosphate buffered saline (PBS) for 20 min. Fixed plates were washed with PBS (200 μL per well) twice, permeabilized with 0.1% Triton X-100 and blocked with 10% donkey serum (v/v) in PBS for 40 min. […] Nuclei were visualized by DAPI staining (Sigma; 1 μg/ml).

OPCs (OPC-1 derivation) = test: High-throughput screening of 3,000 bioactive small molecules for MBP+ oligodendrocyte formation; conditions: 2 μM, 72 h; for % Oligos: MBP+; for fold-change in % MBP + oligodendrocytes: relative to DMSO controls of the same plate
Source text: Plates were imaged on the Operetta High Content Imaging and Analysis system (PerkinElmer) and a set of 6 fields captured from each well resulting in an average of 1200 cells being scored per well. Analysis (PerkinElmer Harmony and Columbus software) began by identifying intact nuclei stained by DAPI; that is, those traced nuclei that were larger than 300 μm^2 in surface area. Each traced nucleus region was then expanded by 50% and cross-referenced with the […] (MBP) stain to identify oligodendrocyte nuclei, and from this the percentage of oligodendrocytes was calculated. In some experiments, the total process length of MBP+ oligodendrocytes was calculated as previously described.
EpiSC-derived OPCs were grown and expanded in poly-ornithine and laminin-coated flasks before harvesting for plating. Cells were dispensed in differentiation media supplemented with Noggin (R&D Systems; 100 ng/ml), Neurotrophin 3 (R&D Systems; 10 ng/ml), cAMP (Sigma; 50 μM), and IGF-1 (R&D Systems; 100 ng/ml)) using a Biotek EL406 Microplate Washer Dispenser (Biotek) equipped with 5 μL dispense cassette (Biotek), into poly-D-lysine/laminin (Sigma, L2020; 4 μg/ml)-coated sterile, 384-well, CellCarrier ultra plates (PerkinElmer), to a final density of 12,500 cells per well and allowed to attach for 45 min before addition of drug. A 3 mM stock of bioactive compound library in dimethylsulphoxide (DMSO) were prepared in an Abgene storage 384-well plate (ThermoFisher Scientific; AB1055). These were added to assay plates using a 50 nL solid pin tool attached to Janus automated workstation (Perkin Elmer), resulting in a final screening concentration of 2 μM. Cells were incubated at 37° C. for 1 hour and then T3 (Sigma; 40 ng/ml) was added to all wells except negative controls, to which FGF (20 ng/ml) was added instead. Negative controls and T3-alone were included in each assay plate. After incubation at 37° C. for 72 h, cells were fixed, washed and stained similar to 96-well OPC assay protocol, although all the washing steps were performed using a Biotek EL406 Microplate Washer Dispenser (Biotek) equipped with a 96-well aspiration manifold. Cells were stained with DAPI (Sigma; 1 μg/ml) and MBP antibody (Abeam, ab7349; 1:100). Plates were imaged on the Operetta High Content Imaging and Analysis system (PerkinElmer) and a set of 4 fields captured from each well resulting in an average of 700 cells being scored per well. Analysis was performed as in High-Content Imaging and Analysis, above. All plates for the primary screen were processed and analyzed simultaneously to minimize variability. Molecules causing more than 20% reduction in nuclear count relative to DMSO control wells were removed from consideration, and hits were called on the basis of largest fold-increase in percentage of MBP+ oligodendrocytes relative to DMSO controls within the same plate.

OPCs = test: GC/MS-based sterol profiling in OPCs; type: cell-based, mouse; conditions: for sterol levels / sterol intermediate accumulation in OPCs: 24 h treatment (siRNA 96 h)
EBP = target: T2, EBP (Mus musculus, UniProt P70245); test: EBP enzymatic assay (GC/MS); type: biochemical; conditions: 10 μM, zymostenol 25 μM
T2 construct: active EBP was obtained from mouse microsomes; from tissue
T2 sequence (P70245 1-230): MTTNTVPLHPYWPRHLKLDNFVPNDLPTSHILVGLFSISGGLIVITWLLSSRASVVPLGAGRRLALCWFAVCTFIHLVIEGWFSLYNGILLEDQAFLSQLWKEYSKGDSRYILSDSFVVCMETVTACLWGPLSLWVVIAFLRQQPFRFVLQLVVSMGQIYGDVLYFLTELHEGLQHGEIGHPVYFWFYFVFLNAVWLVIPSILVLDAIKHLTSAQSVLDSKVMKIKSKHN

T47D cells = conditions: 5 days
[2] = listed as Raloxifene hydrochloride, HCl

## CC(=O)N1CCN(c2ccc(OC[C@@H]3CO[C@](Cn4ccnc4)(c4ccc(Cl)cc4Cl)O3)cc2)CC1 (stereo in doubt) [R-trans-Ketoconazole]
Rat CYP51
  inhibition of mammalian CYP51 in vitro: strikingly less effective at inhibiting mammalian CYP51

## CC(=O)N1CCN(c2ccc(OC[C@H]3CO[C@@](Cn4ccnc4)(c4ccc(Cl)cc4Cl)O3)cc2)CC1 (stereo in doubt) [S-trans-Ketoconazole]
Rat CYP51
  inhibition of mammalian CYP51 in vitro: strikingly less effective at inhibiting mammalian CYP51

## CC(C)CCC[C@@H](C)[C@H]1CC=C2C3=C(CC[C@@]21C)[C@@]1(C)CCC(O)CC1CC3 (stereo partly drawn) [14-dehydrozymostenol, cholesta-8,14-dien-β-ol]
[1]
  formation of MBP+ oligodendrocytes from OPCs: enhanced the formation of MBP+ oligodendrocytes

## Clc1ccccc1C(c1ccccc1)(c1ccccc1)n1ccnc1 [Clotrimazole]
OPCs (OPC-1 derivation)
  % Oligos: 34.36% and 27.93%
  fold-change in % MBP + oligodendrocytes: 5.88

## C[C@]12CC[C@@H]3c4ccc(O)cc4C[C@@H](CCCCCCCCC[S+]([O-])CCCC(F)(F)C(F)(F)F)[C@H]3[C@@H]1CC[C@@H]2O (stereo partly drawn) [Fulvestrant]
OPCs; GC/MS, 24 h
  cholesterol pathway enzyme inhibited in OPCs (from sterol profile): targeted CYP51

## Cl.O[Si](CCCN1CCCCC1)(c1ccc(F)cc1)C1CCCCC1 (stereo not drawn) [Hexahydro-sila-difenidol hydrochloride, p-fluoro analog]
OPCs (OPC-1 derivation)
  % Oligos: 26.76%

## Cl.Cl.OCCOCCN1CCN(C(c2ccccc2)c2ccc(Cl)cc2)CC1 (stereo not drawn) [Hydroxyzine 2HCl]
OPCs (OPC-1 derivation)
  cell viability (% relative to DMSO): 134.19%
  % Oligos: 40.63%
  fold-change in % MBP + oligodendrocytes: 4.80

## Clc1ccc(C(Cn2ccnc2)OCc2c(Cl)cccc2Cl)c(Cl)c1 (stereo not drawn) [Isoconazole nitrate]
OPCs (OPC-1 derivation)
  % Oligos: 53.25%

## Cl.Clc1ccc(N2CCN(Cc3c[nH]c4ncccc34)CC2)cc1 [L-745,870 hydrochloride]
OPCs (OPC-1 derivation)
  % Oligos: 32.61%

## O=C(c1ccc(OCCN2CCCCC2)cc1)c1c(-c2ccc(O)cc2)sc2cc(O)ccc12 [Raloxifene HCl]
OPCs (OPC-1 derivation); HCl
  % Oligos: 35.01%
OPCs (OPC-1 derivation); [2]
  % Oligos: 33.33%
  fold-change in % MBP + oligodendrocytes: 3.77

## Cc1cc(NC(=O)Nc2ccc(N(C)C)cc2)c2cc(F)cc(F)c2n1 [SB408124]
OPCs (OPC-1 derivation)
  cell viability (% relative to DMSO): 106.19%
  % Oligos: 39.63%

## COc1ccc(S(=O)(=O)N2CCC(N3CCC(C)CC3)CC2)cc1 [TASIN-1, Tasin-1]
[1]
  formation of MBP+ oligodendrocytes from OPCs: enhanced formation of MBP+ oligodendrocytes
EBP
  inhibition of EBP enzymatic activity: clear inhibition

## CCN(CC)CCCCCCCCOC(=O)c1cc(OC)c(OC)c(OC)c1.Cl [TMB-8 hydrochloride]
OPCs (OPC-1 derivation)
  cell viability (% relative to DMSO): 139.42%
  % Oligos: 18.47%

## CCC(C)(C)c1ccc(CC(C)CN2C[C@@H](C)O[C@@H](C)C2)cc1 (stereo partly drawn) [amorolfine, Amorolfine]
[1]
  formation of MBP+ oligodendrocytes from OPCs: enhanced formation of MBP+ oligodendrocytes

## CN1[C@@H]2CC[C@H]1C[C@@H](OC(c1ccccc1)c1ccccc1)C2 [benztropine, Benztropine]
OPCs; GC/MS
  sterol levels / sterol intermediate accumulation in OPCs: induced accumulation of zymostenol and zymosterol and decreased basal sterol levels
EBP
  inhibition of EBP enzymatic activity: clear inhibition

## C=C(c1ccc(C(=O)O)cc1)c1cc2c(cc1C)C(C)(C)CCC2(C)C [bexarotene, Bexarotene]
OPCs; GC/MS
  sterol levels / sterol intermediate accumulation in OPCs: minimal effects on sterol levels

## CC(C)CCC[C@@H](C)[C@H]1CC[C@H]2[C@@H]3CC=C4C[C@@H](O)CC[C@]4(C)[C@H]3CC[C@]12C [cholesterol, Cholesterol]
[1]
  formation of MBP+ oligodendrocytes from OPCs: ineffective

## CN1CCC[C@@H]1CCO[C@](C)(c1ccccc1)c1ccc(Cl)cc1 [clemastine, Clemastine]
OPCs; GC/MS
  sterol levels / sterol intermediate accumulation in OPCs: induced accumulation of zymostenol and zymosterol and decreased basal sterol levels

## OC(Cn1cncn1)(Cn1cncn1)c1ccc(F)cc1F [fluconazole, Fluconazole]
Rat CYP51
  inhibition of mammalian CYP51 in vitro: did not inhibit mammalian CYP51 in vitro

## OCCOCCN1CCN(C(c2ccccc2)c2ccc(Cl)cc2)CC1 (stereo not drawn) [hydroxyzine, Hydroxyzine]
EBP
  inhibition of EBP enzymatic activity: directly inhibiting EBP enzymatic activity

## CC(C)=CCC[C@@H](C)[C@H]1CC[C@@]2(C)C3=C(CC[C@]12C)[C@@]1(C)CC[C@H](O)C(C)(C)[C@@H]1CC3 [lanosterol, Lanosterol]
[1]
  formation of MBP+ oligodendrocytes from OPCs: enhanced formation of MBP+ oligodendrocytes in a dose-responsive fashion

## N[C@@H](Cc1cc(I)c(Oc2ccc(O)c(I)c2)c(I)c1)C(=O)O [liothyronine, Liothyronine]
OPCs; GC/MS
  sterol levels / sterol intermediate accumulation in OPCs: minimal effects on sterol levels

## OCCOc1ccc(/C(=C(/CCCl)c2ccccc2)c2ccccc2)cc1 [ospemifene, Ospemifene]
T47D cells
  antiestrogen effects on estrogen-dependent growth: comparable antiestrogen effects
OPCs
  cholesterol pathway enzyme inhibited in OPCs (from sterol profile): did not inhibit EBP in OPCs
[1]
  formation of MBP+ oligodendrocytes from OPCs: did not enhance differentiation to MBP+ oligodendrocytes

## CN(C)CCOc1ccc(/C(=C(/CCCl)c2ccccc2)c2ccccc2)cc1 [toremifene, Toremifene]
T47D cells
  antiestrogen effects on estrogen-dependent growth: comparable antiestrogen effects
OPCs; GC/MS, 24 h
  cholesterol pathway enzyme inhibited in OPCs (from sterol profile): inhibited EBP
[1]
  formation of MBP+ oligodendrocytes from OPCs: enhanced MBP+ oligodendrocyte generation over a wide dose range

## CC(C)CCC[C@@H](C)[C@H]1CC[C@H]2C3=C(CC[C@]12C)[C@@]1(C)CC[C@H](O)C[C@@H]1CC3 [zymostenol, Zymostenol]
[1]
  formation of MBP+ oligodendrocytes from OPCs: enhanced the formation of MBP+ oligodendrocytes

## (±)-Vesamicol
OPCs (OPC-1 derivation)
  cell viability (% relative to DMSO): 112.02%
  % Oligos: 34.23%

## Ifenprodil Tartrate
OPCs (OPC-1 derivation)
  cell viability (% relative to DMSO): 103.79%
  % Oligos: 41.41%
  fold-change in % MBP + oligodendrocytes: 4.89
OPCs (OPC-1 derivation); listed as ifenprodil tartrate
  % Oligos: 33.69%
  fold-change in % MBP + oligodendrocytes: 3.61
  cell viability (% relative to DMSO): 106.02%

## Varenicline tartrate
OPCs (OPC-1 derivation)
  cell viability (% relative to DMSO): 144.02%
  % Oligos: 22.86%
